Our source for the melting point values is patent US7479489B2, “Heterocyclic antiviral compounds” (Roche Palo Alto LLC, priority 2004, dated 2009).

As usually defined, the melting point is the temperature of the solid-liquid transition.

Molecules are shown by their SMILES. Some results are limits rather than exact numbers.

As to `CC(C)CCn1c(=O)c(C2=CS(=O)(=O)c3ccccc3N2)c(O)c2cc(F)cnc21`, the melting point fell in the range of 90 to 112 °C. The compound `Cc1ccc2c(c1)c(O)c(C1=CS(=O)(=O)c3ccccc3N1)c(=O)n2Cc1ccc(F)cc1` came in with a melting point of 247 to 249 °C. In the case of `Cc1ccc2c(c1)c(O)c(C1=CS(=O)(=O)c3ccccc3N1)c(=O)n2Cc1ccc(F)cc1.[Na]` it was above 250 °C; in that of `CC(C)CCn1c(=O)c(C2=CS(=O)(=O)c3ccc(C#N)cc3N2)c(O)c2ccccc21`, above 250 °C; in that of `O=c1c(C2=CS(=O)(=O)c3cc(OCc4ccccc4)ccc3N2)c(O)c2cc(F)ccc2n1Cc1ccc(F)cc1`, 242 to 244 °C. `Nc1ccc2c(c1)S(=O)(=O)C=C(c1c(O)c3ccccc3n(CCC3CC3)c1=O)N2` had a melting point above 250 °C.

For `Nc1ccc2c(c1)S(=O)(=O)C=C(c1c(O)c3cc(F)ccc3n(Cc3ccc(F)cc3)c1=O)N2`, the melting point was above 250 °C. The figure for `CC(=O)Nc1ccc2c(c1)S(=O)(=O)C=C(c1c(O)c3cc(F)ccc3n(Cc3ccc(F)cc3)c1=O)N2` is above 250 °C; for `O=c1c(C2=CS(=O)(=O)c3ccccc3N2)c(O)c2cc(F)ccc2n1Cc1ccc(F)c(F)c1` it is 230 to 235 °C; for `O=c1c(C2=CS(=O)(=O)c3ccccc3N2)c(O)c2cc(F)ccc2n1Cc1ccc(F)c(F)c1.[Na]` it is 230 to 235 °C.

Regarding `N#Cc1cccc(Cn2c(=O)c(C3=CS(=O)(=O)c4ccccc4N3)c(O)c3cc(F)ccc32)c1`, the melting point is above 250 °C.

Take `N#Cc1cccc(Cn2c(=O)c(C3=CS(=O)(=O)c4ccccc4N3)c(O)c3cc(F)ccc32)c1.[Na]`: the melting point is above 250 °C. For `CS(=O)(=O)Nc1ccc2c(c1)S(=O)(=O)C=C(c1c(O)c3cc(F)ccc3n(CCC3CC3)c1=O)N2.[Na]`, the melting point was above 250 °C. For the compound `CCCS(=O)(=O)Nc1ccc2c(c1)S(=O)(=O)C=C(c1c(O)c3cc(F)ccc3n(CCC3CC3)c1=O)N2`, the melting point was in the range of 145 to 150 °C. `CCCS(=O)(=O)Nc1ccc2c(c1)S(=O)(=O)C=C(c1c(O)c3cc(F)ccc3n(CCC3CC3)c1=O)N2.[Na]` registered a melting point above 250 °C. In the case of `CC(C)CCn1c(=O)c(C2=CS(=O)(=O)c3ccccc3N2)c(O)c2cc(Cl)ccc21` it was 194 to 197 °C. The compound `COc1ccc2c(c1)S(=O)(=O)C=C(c1c(O)c3cc(F)ccc3n(Cc3ccc(F)cc3)c1=O)N2` returned a melting point above 250 °C. In the case of `COC(=O)COc1ccc2c(c1)S(=O)(=O)C=C(c1c(O)c3cc(F)ccc3n(Cc3ccc(F)cc3)c1=O)N2` it was 200 to 207 °C; in that of `O=c1c(C2=CS(=O)(=O)c3cc(NS(=O)(=O)C4CC4)ccc3N2)c(O)c2cc(F)ccc2n1CCC1CC1`, 145 to 155 °C. The figure for `CN(C)C(=O)COc1ccc2c(c1)S(=O)(=O)C=C(c1c(O)c3cc(F)ccc3n(Cc3ccc(F)cc3)c1=O)N2` is above 250 °C; for `CN(c1ccc2c(c1)S(=O)(=O)C=C(c1c(O)c3cc(F)ccc3n(CCC3CC3)c1=O)N2)S(C)(=O)=O` it is 208 to 212 °C; for `Cc1noc(C)c1S(=O)(=O)Nc1ccc2c(c1)S(=O)(=O)C=C(c1c(O)c3cc(F)ccc3n(CCC3CC3)c1=O)N2` it is 150 to 157 °C.

`O=c1c(C2=CS(=O)(=O)c3cc(NS(=O)(=O)c4ccccc4)ccc3N2)c(O)c2cc(F)ccc2n1CCC1CC1`: the melting point was above 200 °C.

Compound `CNC(=O)Nc1ccc2c(c1)S(=O)(=O)C=C(c1c(O)c3cc(F)ccc3n(CCC3CC3)c1=O)N2` had a melting point above 220 °C.

With `NC(=O)CCOc1ccc2c(c1)S(=O)(=O)C=C(c1c(O)c3cc(F)ccc3n(CCC3CC3)c1=O)N2`, the melting point was above 250 °C. In the case of `CNC(=O)COc1ccc2c(c1)S(=O)(=O)C=C(c1c(O)c3cc(F)ccc3n(Cc3ccc(F)cc3)c1=O)N2` it was above 240 °C; in that of `CN(c1ccc2c(c1)S(=O)(=O)C=C(c1c(O)c3cc(F)ccc3n(Cc3ccc(F)cc3)c1=O)N2)S(C)(=O)=O`, 214 to 218 °C; in that of `CS(=O)(=O)Nc1ccc2c(c1)S(=O)(=O)C=C(c1c(O)c3cc(F)ccc3n(Cc3ccc(F)c(Cl)c3)c1=O)N2`, 166 to 174 °C. The figure for `COc1ccc2c(c1)c(O)c(C1=CS(=O)(=O)c3ccccc3N1)c(=O)n2CCC1CC1` is 220 to 221 °C; for `CS(=O)(=O)Nc1ccc2c(c1)S(=O)(=O)C=C(c1c(O)c3cc(F)ccc3n(Cc3cccnc3)c1=O)N2` it is 174 to 186 °C; for `CS(=O)(=O)Nc1ccc2c(c1)S(=O)(=O)C=C(c1c(O)c3cc(F)ccc3n(CC3CCCCC3)c1=O)N2` it is 184 to 203 °C. Take `CC(C)CCn1c(=O)c(C2=CS(=O)(=O)c3cc(NS(C)(=O)=O)ccc3N2)c(O)c2cc(F)ccc21`: the melting point fell in the range of 205 to 219 °C. As for `CS(=O)(=O)Nc1ccc2c(c1)S(=O)(=O)C=C(c1c(O)c3cc(F)ccc3n(Cc3ccc(F)c(F)c3)c1=O)N2`, the melting point was in the range of 148.2 to 149.4 °C.

In the case of `CS(=O)(=O)Nc1ccc2c(c1)S(=O)(=O)C=C(c1c(O)c3cc(F)ccc3n(Cc3ccc(F)c(C(F)(F)F)c3)c1=O)N2`, the melting point was 185.8 to 187 °C.

Compound `O=c1c(C2=CS(=O)(=O)c3ccccc3N2)c(O)c2cc(Cl)ccc2n1CCC1CC1` showed a melting point of 227 to 229 °C. `CS(=O)(=O)Nc1ccc2c(c1)S(=O)(=O)C=C(c1c(O)c3cc(F)ccc3n(Cc3ccncc3)c1=O)N2.O=C(O)C(F)(F)F` gave a melting point of 167 to 169 °C. `CC(C)CCn1c(=O)c(C2=CS(=O)(=O)c3ccc(Cl)cc3N2)c(O)c2ccccc21`: the melting point was in the range of 90 to 110 °C. In turn, `O=c1c(C2=CS(=O)(=O)c3ccccc3N2)c(O)c2ccccc2n1Cc1ccccc1F` registered a melting point above 200 °C. The figure for `CC(C)CCN1C(=O)C(C2=CS(=O)(=O)c3ccccc3N2)=C(O)[C@@H]1C(C)(C)C` is 85 to 87 °C; for `COc1cc(CN2C(=O)C(C3=CS(=O)(=O)c4cc(NS(C)(=O)=O)ccc4N3)=C(O)[C@@H]2C(C)(C)C)ccc1F` it is 175 to 180 °C. In the case of `CC(C)(C)[C@H]1C(O)=C(C2=CS(=O)(=O)c3cc([N+](=O)[O-])ccc3N2)C(=O)N1Cc1ccc(F)cc1` it was 138 to 147 °C.

Take `CC(C)(C)[C@H]1C(O)=C(C2=CS(=O)(=O)c3cc(N)ccc3N2)C(=O)N1Cc1ccc(F)cc1`: the melting point is 146 to 155 °C. The figure for `CC(C)(C)[C@H]1C(O)=C(C2=CS(=O)(=O)c3cc(NS(N)(=O)=O)ccc3N2)C(=O)N1Cc1ccc(F)cc1` is 150 to 156 °C. The figure for `CC(C)(C)[C@H]1C(O)=C(C2=CS(=O)(=O)c3cc(N)ccc3N2)C(=O)N1CCC1CC1` is 105 to 110 °C; for `CC(C)(C)[C@H]1C(O)=C(C2=CS(=O)(=O)c3cc(NS(C)(=O)=O)ccc3N2)C(=O)N1CCC1CC1` it is 140 to 145 °C; for `CC(C)CCN1C(=O)C(C2=CS(=O)(=O)c3ccccc3N2)=C(O)[C@@H]1C1CCCCC1` it is 98 to 100 °C.

Compound `CC[C@H](C)[C@H]1C(O)=C(C2=CS(=O)(=O)c3ccccc3N2)C(=O)N1CCC(C)C` came in with a melting point of 72 to 80 °C. The figure for `CC[C@H](C)[C@H]1C(O)=C(C2=CS(=O)(=O)c3ccccc3N2)C(=O)N1Cc1ccccc1` is 88 to 95 °C. The figure for `CC(C)C[C@H]1C(O)=C(C2=CS(=O)(=O)c3ccccc3N2)C(=O)N1Cc1ccc(F)cc1` is 160 °C (dec.).

Take `O=C1C(C2=CS(=O)(=O)c3ccccc3N2)=C(O)[C@H](C2CCCCC2)N1Cc1ccc(F)cc1`: the melting point was 180 °C (dec.). The figure for `O=C1C(C2=CS(=O)(=O)c3ccccc3N2)=C(O)[C@H](C2CCCCC2)N1Cc1ccc(F)cc1.[Na]` is above 250 °C. As to `CN1C(c2nc(Cc3ccc(F)cc3)c3ccccc3c2O)=CS(=O)(=O)c2cc(Cl)ccc21`, the melting point is above 275 °C. The figure for `CN1C(c2nc(Cc3ccc(F)cc3)c3ccc(F)cc3c2O)=CS(=O)(=O)c2cc(Cl)ccc21` is 254 to 256 °C.
